# Experimental data taken from US20120108500A1, “Compositions and Methods for Modulating Immunodeficiency Virus Transcription” (priority 2010, published 2012).
# Assays:
# [1] = tested on: HIV transcription in J-Lat A2 cells; assay: cells; format: cell-based; conditions: for effect on TNFα-mediated activation of gene expression: phenelzine 100-3000 μM, DRB 0.3-10 μM
# Protocol: Culhane et al. (2010) J Am Chem Soc 132: 3164-3176. To test the activity of this agent in HIV infection, J-Lat A2 cells were treated with increasing amounts of phenelzine or the CDK inhibitor 5,6-dichloro-1-β-D-ribofuranosyl-1H-benzimidazole (DRB), a known Tat inhibitor.
# (§1) FIGS. 7A and 7B. LSD1/KDM1 is a potential drug target in HIV transcription. (A) J-Lat A2 cells were stimulated with 0.08 ng/ml of TNFα in the presence of increasing amounts of phenelzine (100, 300, 1000 or 3000 μM), DRB (0.3, 1, 3 or 10 μM) or dimethylsulfoxide (DMSO) as carrier control overnight. Numbers of GFP+ cells as well as propidium iodide (PI)-negative cells as a measure of intact cell viability were analyzed by flow cytometry. The percentage compared to DMSO-treated control cells was calculated. The average of two independent experiments is shown. (B) Purified resting primary CD4+ T cells were infected at a high multiplicity of infection (M.O.I.) with infectious HIV-NL4-3 luciferase reporter virus. Three days after infection, cells were stimulated with α-CD3 and α-CD28 antibodies in the presence of phenelzine (100, 300, or 1000 μM), DRB (1 or 10 μM) or DMSO overnight followed by analysis for luciferase activity and PI uptake.
# J-Lat A2 cells = assay: Cell viability of J-Lat A2 cells (propidium iodide-negative cells, flow cytometry); conditions: at the tested concentrations
# Protocol: as §1
# [2] = tested on: HIV-1 NL4-3 luciferase reporter virus in primary CD4+ T cells
# Protocol: as §1
# primary CD4+ T cells = tested on: primary CD4+ T cells
# Protocol: as §1
# [3] = target: C-terminal FLAG tagged Tat protein (Tat/FLAG), expressed in cells (HIV) (UniProt P04608); assay: cell-based or functional assay
# [4] = tested on: histone H3 dimethylated at lysine 4 (in purified total cellular histones)
# [5] = target: synthetic Tat protein (aa 1-72), K51 monomethylated (UniProt P04608)
molecule,measurement,setting,value
"NNCCc1ccccc1 (racemic) [phenelzine, (±)-2-phenylethylhydrazine]",IC50,"[1]; Human immunodeficiency virus 1, J-Lat A2, read-out: IC50, prevention of TNFα-mediated activation of gene expression (GFP+ cells)",300 µM
same,concentrations needed relative to DRB,"[1]; J-Lat A2 cells, TNFα-stimulated",~150 fold
same,effect on TNFα-mediated activation of gene expression,[1]; J-Lat A2 cells,prevented TNFα-mediated activation of gene expression in a dose-dependent manner
same,cell toxicity (PI-negative cells),J-Lat A2 cells,No cell toxicity was observed
same,basal expression of luciferase,[2]; nonactivated primary T cells,suppressed the basal expression of luciferase in nonactivated cells
same,activation of luciferase expression,"[2]; primary CD4+ T cells of two donors, α-CD3/α-CD28 stimulation, phenelzine 100-1000 μM",successfully suppressed
same,suppression of HIV gene expression compared with DRB,[2]; primary T cells,more efficient in suppressing HIV gene expression than DRB
same,cell viability (PI uptake),primary CD4+ T cells,slight decrease in cell viability was observed in one donor
"OC[C@H]1O[C@@H](n2cnc3cc(Cl)c(Cl)cc32)[C@H](O)[C@@H]1O [DRB, 5,6-dichloro-1-β-D-ribofuranosyl-1H-benzimidazole]",effect on TNFα-mediated activation of gene expression,[1]; J-Lat A2 cells,prevented TNFα-mediated activation of gene expression in a dose-dependent manner
same,cell toxicity (PI-negative cells),J-Lat A2 cells,No cell toxicity was observed
endogenous LSD1/KDM1 (lysine-specific demethylase-1) in cells (from UniProt O60341 1-852) (enzyme),decrease in Tat transactivation of the HIV LTR luciferase reporter in HeLa cells after LSD1/KDM1 siRNA,[3],50%
"recombinant LSD1/KDM1 (His-tagged, prokaryotic expression)","in vitro demethylation of purified histones, western blot with α-Me2H3K4",[4],"LSD1/KDM1 also demethylated its cognate substrate, dimethyl lysine 4 in histone H3, as expected"
same,"in vitro demethylation, western blot with α-Me1K51 Tat antibodies",[5],Recombinant LSD1/KDM1 demethylated synthetic monomethylated Tat in a dose-dependent manner
